Values of other authors, collected in US9597362B2, “Use of probiotic bacteria in the treatment of infection” (TEAGASC, THE AGRICULTURE AND FOOD DEVELOPMENT AUTHORITY, priority 2003, dated 2017).

Key:
[1] = test system: Salmonella typhimurium
[2] = test system: Gram-positive bacteria; conditions: including methicillin resistant staphylococci, vancomycin resistant enterococci, penicillin resistant pneumococci

| Substance | pathogen translocation compared with control mice ([1]; mice fed the probiotic prior to oral challenge) | survival ([1]; probiotic-fed groups) | bactericidal spectrum [2] |
| --- | --- | --- | --- |
| Lactobacillus acidophilus | reduced pathogen translocation to the spleen and liver | increased survival of mice | – |
| Lacticin 3147 | – | – | kills all Gram-positive bacteria tested to date |
